Measurements as given in US5935932A, “Bradykinin antagonists containing pentafluorophenylalanine” (University Technology Corporation, priority 1998, dated 1999).
Like-named read-outs stand apart in the source and are kept apart here. Where a SMILES comes first, the peptide text is derived from it. [ ]: non-standard residue; d: D form. dPhe(F5) = N[C@H](Cc1c(F)c(F)c(F)c(F)c1F)C(=O)O; Oic = O=C(O)[C@@H]1C[C@@H]2CCCC[C@@H]2N1; Igl = N[C@H](C(=O)O)C1Cc2ccccc2C1; Hyp = O=C(O)[C@@H]1C[C@@H](O)CN1; NMeF = CN[C@@H](Cc1ccccc1)C(=O)O

How the values were obtained:
[1] = target: T1, bradykinin receptors in Rat Uterus (Rattus norvegicus, UniProt P25023); assay: Rat Uterus functional assay; format: cell-based
T1 construct: describes the Rat Uterus assay used to analyze the present compounds; from tissue; host or cells: isolated rat uterus
T1 sequence (P25023 1-396): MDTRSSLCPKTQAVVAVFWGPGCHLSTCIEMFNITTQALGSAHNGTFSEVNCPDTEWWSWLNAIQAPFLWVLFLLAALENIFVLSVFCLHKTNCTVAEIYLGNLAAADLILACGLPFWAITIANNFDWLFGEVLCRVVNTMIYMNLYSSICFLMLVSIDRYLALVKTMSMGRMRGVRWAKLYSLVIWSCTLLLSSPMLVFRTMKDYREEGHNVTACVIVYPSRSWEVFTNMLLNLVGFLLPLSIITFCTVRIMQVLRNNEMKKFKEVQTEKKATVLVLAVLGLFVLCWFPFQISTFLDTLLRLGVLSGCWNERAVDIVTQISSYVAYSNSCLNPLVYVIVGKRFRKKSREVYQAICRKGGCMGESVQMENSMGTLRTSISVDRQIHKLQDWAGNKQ
Source text: 4. Rat Uterus functional assay Trautshold, Handbook of Expt. Pharmacol. […] The Trautshold method was used without changes to the parameters. U.S. Pat. No. 4,693,993, at Column 14, line 10 gives a general description of data analysis for this assay. In this table, I=inhibitor, and numbers in parenthesis are pA2. Agonist activity are given as percent BK activity.

[2] = target: T2, bradykinin receptors in Guinea Pig Ileum (Cavia porcellus, UniProt O70526); assay: Guinea Pig Ileum functional assay; format: cell-based
T2 construct: describes the Guinea Pig Ileum assay used to analyze the present compounds; from tissue; host or cells: isolated guinea pig ileum
T2 sequence (O70526 1-372): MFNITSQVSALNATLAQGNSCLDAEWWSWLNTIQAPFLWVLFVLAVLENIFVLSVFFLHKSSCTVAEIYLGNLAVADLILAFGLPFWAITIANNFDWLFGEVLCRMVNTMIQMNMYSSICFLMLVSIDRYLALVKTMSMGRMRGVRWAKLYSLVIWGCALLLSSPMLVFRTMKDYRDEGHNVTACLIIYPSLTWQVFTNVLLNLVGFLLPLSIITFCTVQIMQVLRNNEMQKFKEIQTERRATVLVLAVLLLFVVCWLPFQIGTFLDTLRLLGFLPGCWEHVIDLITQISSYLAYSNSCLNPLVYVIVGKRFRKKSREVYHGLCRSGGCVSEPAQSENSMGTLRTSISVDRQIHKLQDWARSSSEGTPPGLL
Source text: 5. Guinea Pig Ileum functional assay
Trautshold, Handbook of Expt. Pharmacol. Vol 25, Springer Verlag pp 53-55 (1970) describes the Guinea Pig Ileum assay used to analyze the present compounds. The Trautshold method was used without changes to the parameters. U.S. Pat. No. 4,693,993, at Column 14, line 10 gives a general description of data analysis for this assay.
In this table, I=inhibitor, and numbers in parenthesis are pA2. Agonist activity are given as percent BK activity.

[3] = Ileum, pA2 (I=inhibitor), number in parenthesis is pA2
[4] = number in parenthesis is pA2, read-out: Ileum, pA2 (I=inhibitor) (converted)

Structure (SMILES)	Kb [2, 3] [nM]	Kb [1] [nM]	Kb [2, 4] [nM]	also measured
N=C(N)NCCC[C@H](NC(=O)[C@H](CCCCN)NC(=O)[C@@H](N)CCCCN)C(=O)N1CCC[C@H]1C(=O)N1C[C@H](O)C[C@H]1C(=O)NCC(=O)N[C@H](C(=O)N[C@@H](CO)C(=O)N[C@H](Cc1c(F)c(F)c(F)c(F)c1F)C(=O)N[C@H](C(=O)O)C1CCCCC1)C1Cc2ccccc2C1 [Compound B10146, Lys-Lys-Arg-Pro-Hyp-Gly-Igl-Ser-Df5f-Chg]	1260	–	–	Uterus, activity in words ([1]; rat uterus, symbol without number): Ag
N=C(N)NCCC[C@@H](N)C(=O)N[C@@H](CCCNC(=N)N)C(=O)N1CCC[C@H]1C(=O)N1C[C@H](O)C[C@H]1C(=O)NCC(=O)N[C@@H](Cc1cccs1)C(=O)N[C@@H](CO)C(=O)N[C@H](Cc1c(F)c(F)c(F)c(F)c1F)C(=O)N[C@@H](Cc1c(F)c(F)c(F)c(F)c1F)C(=O)N[C@@H](CCCNC(=N)N)C(=O)O [Compound B10166, DArg-Arg-Pro-Hyp-Gly-Thi-Ser-Df5f-f5f-Arg]	–	7.94	10	–
N=C(N)NCCC[C@@H](N)C(=O)N[C@@H](CCCNC(=N)N)C(=O)N1CCC[C@H]1C(=O)N1C[C@H](O)C[C@H]1C(=O)NCC(=O)N[C@H](C(=O)N[C@@H](CO)C(=O)N[C@H](Cc1c(F)c(F)c(F)c(F)c1F)C(=O)N(CC(=O)N[C@@H](CCCNC(=N)N)C(=O)O)C1CCCCCC1)C1Cc2ccccc2C1 [Compound B10206, DArg-Arg-Pro-Hyp-Gly-Igl-Ser-Df5f-Nc7G-Arg]	–	1.26	15.8	–
N=C(N)NCCC[C@@H](N)C(=O)N[C@@H](CCCNC(=N)N)C(=O)N1CCC[C@H]1C(=O)N1C[C@H](O)C[C@H]1C(=O)NCC(=O)N[C@H](C(=O)N[C@@H](CO)C(=O)N[C@H](Cc1c(F)c(F)c(F)c(F)c1F)C(=O)N(CC(=O)N[C@@H](CCCNC(=N)N)C(=O)O)C1CCCCC1)C1Cc2ccccc2C1 [Compound B10112, DArg-Arg-Pro-Hyp-Gly-Igl-Ser-Df5f-NchG-Arg]	25.1	–	–	Uterus, agonist activity as percent BK activity ([1]; rat uterus): 21%
N=C(N)NCCC[C@@H](N)C(=O)N[C@@H](CCCNC(=N)N)C(=O)N1CCC[C@H]1C(=O)N1C[C@H](O)C[C@H]1C(=O)NCC(=O)N[C@@H](Cc1c(F)c(F)c(F)c(F)c1F)C(=O)N[C@@H](CO)C(=O)N[C@@H](C(=O)N1[C@H](C(=O)N[C@@H](CCCNC(=N)N)C(=O)O)C[C@@H]2CCCC[C@@H]21)C1Cc2ccccc2C1 [Compound B10210, DArg-Arg-Pro-Hyp-Gly-f5f-Ser-DIgl-Oic-Arg]	–	–	15.8	–
CN(C(=O)[C@H](CCCNC(=N)N)NC(=O)[C@H](N)CCCNC(=N)N)[C@@H](Cc1ccccc1)C(=O)N1C[C@H](O)C[C@H]1C(=O)NCC(=O)N[C@H](C(=O)N[C@@H](CO)C(=O)N[C@H](Cc1c(F)c(F)c(F)c(F)c1F)C(=O)N1[C@H](C(=O)N[C@@H](CCCNC(=N)N)C(=O)O)C[C@@H]2CCCC[C@@H]21)C1Cc2ccccc2C1 [Compound B10150, DArg-Arg-NMF-Hyp-Gly-Igl-Ser-Df5f-Oic-Arg] (H-[dR]R[NMeF][Hyp]G[Igl]S[dPhe(F5)][Oic]R-OH; N-terminus and C-terminus assumed)	–	7.94	12.6	–
N=C(N)NCCC[C@@H](N)C(=O)N[C@@H](CCCNC(=N)N)C(=O)N1CCC[C@H]1C(=O)N1C[C@H](O)C[C@H]1C(=O)NCC(=O)N[C@@H](Cc1c(F)c(F)c(F)c(F)c1F)C(=O)N[C@@H](CO)C(=O)N[C@@H](C(=O)N1[C@H](C(=O)N[C@@H](CCCNC(=N)N)C(=O)O)C[C@@H]2CCCC[C@@H]21)C1Cc2ccccc2C1 [Compound B10164, DArg-Arg-Pro-Hyp-Gly-f5f-Ser-DIgl-Oic-Arg]	–	10	63.1	–
N=C(N)NCCC[C@H](NC(=O)[C@@H]1C[C@@H]2CCCC[C@@H]2N1C(=O)[C@@H](Cc1c(F)c(F)c(F)c(F)c1F)NC(=O)[C@H](CO)NC(=O)[C@H](Cc1cccs1)NC(=O)CNC(=O)[C@@H]1CCCN1C(=O)[C@@H]1CCCN1C(=O)[C@H](CCCNC(=N)N)NC(=O)[C@@H](CCCNC(=N)N)NC(=O)[C@H](CCCCN)NC(=O)CCCCCCCCCCC(=O)N[C@@H](CCCCN)C(=O)N[C@H](CCCNC(=N)N)C(=O)N[C@@H](CCCNC(=N)N)C(=O)N1CCC[C@H]1C(=O)N1CCC[C@H]1C(=O)NCC(=O)N[C@@H](Cc1cccs1)C(=O)N[C@@H](CO)C(=O)N[C@H](Cc1c(F)c(F)c(F)c(F)c1F)C(=O)N1[C@H](C(=O)N[C@@H](CCCNC(=N)N)C(=O)O)C[C@@H]2CCCC[C@@H]21)C(=O)O [Compound B10118, αDDD-(Lys-DArg-Arg-Pro-Pro-Gly-Thi-Ser-Df5f-Oic-Arg)2]	–	7.94	5.01	–
N=C(N)NCCC[C@@H](N)C(=O)N[C@@H](CCCNC(=N)N)C(=O)N1CCC[C@H]1C(=O)N1C[C@H](O)C[C@H]1C(=O)NCC(=O)N[C@@H](Cc1cccs1)C(=O)N[C@@H](CO)C(=O)N[C@H](Cc1c(F)c(F)c(F)c(F)c1F)C(=O)N(CC(=O)N[C@@H](CCCNC(=N)N)C(=O)O)C1CCCCC1 [Compound B10208, DArg-Arg-Pro-Hyp-Gly-Thi-Ser-Df5f-NchG-Arg]	2	–	–	Uterus, agonist activity as percent BK activity ([1]; rat uterus): 14.0%
N=C(N)NCCC[C@@H](N)C(=O)N[C@@H](CCCNC(=N)N)C(=O)N1CCC[C@H]1C(=O)N1C[C@H](O)C[C@H]1C(=O)NCC(=O)N[C@H](C(=O)N[C@@H](CO)C(=O)N[C@H](Cc1c(F)c(F)c(F)c(F)c1F)C(=O)N1[C@H](C(=O)N[C@@H](CCCNC(=N)N)C(=O)O)C[C@@H]2CCCC[C@@H]21)C1Cc2ccccc2C1 [Compound B10044, DArg-Arg-Pro-Hyp-Gly-Igl-Ser-Df5f-Oic-Arg]	–	7.94	3.98	–
N=C(N)NCCC[C@H](NC(=O)[C@H](Cc1c(F)c(F)c(F)c(F)c1F)NC(=O)[C@@H](Cc1c(F)c(F)c(F)c(F)c1F)NC(=O)[C@H](CO)NC(=O)[C@@H](NC(=O)CNC(=O)[C@@H]1C[C@@H](O)CN1C(=O)[C@@H]1CCCN1C(=O)[C@H](CCCNC(=N)N)NC(=O)[C@H](CCCNC(=N)N)NC(=O)CCC(=O)OCCOC(=O)CCC(=O)N[C@@H](CCCNC(=N)N)C(=O)N[C@@H](CCCNC(=N)N)C(=O)N1CCC[C@H]1C(=O)N1C[C@H](O)C[C@H]1C(=O)NCC(=O)N[C@H](C(=O)N[C@@H](CO)C(=O)N[C@H](Cc1c(F)c(F)c(F)c(F)c1F)C(=O)N[C@@H](Cc1c(F)c(F)c(F)c(F)c1F)C(=O)N[C@@H](CCCNC(=N)N)C(=O)O)C1Cc2ccccc2C1)C1Cc2ccccc2C1)C(=O)O [Compound B10236, EGS-(Arg-Arg-Pro-Hyp-Gly-Igl-Ser-Df5f-f5f-Arg)2]	–	–	39.8	Kb ([1]; rat uterus, number in parenthesis is pA2, read-out: Uterus, pA2 (I=inhibitor) (converted)): 20 nM
N=C(N)NCCC[C@@H](N)C(=O)N[C@@H](CCCNC(=N)N)C(=O)N1CCC[C@H]1C(=O)N1C[C@H](O)C[C@H]1C(=O)NCC(=O)N[C@H](C(=O)N[C@@H](CO)C(=O)N[C@H](Cc1c(F)c(F)c(F)c(F)c1F)C(=O)N[C@H](C(=O)N[C@@H](CCCNC(=N)N)C(=O)O)C1Cc2ccccc2C1)C1Cc2ccccc2C1 [Compound B10056, DArg-Arg-Pro-Hyp-Gly-Igl-Ser-Df5f-Igl-Arg]	10	–	–	Uterus, agonist activity as percent BK activity ([1]; rat uterus): 9.5%
N=C(N)NCCC[C@@H](N)C(=O)N[C@@H](CCCNC(=N)N)C(=O)N1CCC[C@H]1C(=O)N[C@H](C(=O)NCC(=O)N[C@H](C(=O)N[C@@H](CO)C(=O)N[C@H](Cc1c(F)c(F)c(F)c(F)c1F)C(=O)N1[C@H](C(=O)N[C@@H](CCCNC(=N)N)C(=O)O)C[C@@H]2CCCC[C@@H]21)C1Cc2ccccc2C1)C1Cc2ccccc2C1 [Compound B10214, DArg-Arg-Pro-Igl-Gly-Igl-Ser-Df5f-Oic-Arg]	–	6.31	7.94	–
